# Experimental data taken from PubChem BioAssay AID1259411 (Chemical Carcinogenesis Research Information System (CCRIS), 2018).
# Activity calls are given as the source filed them. How the calls were made is not given here.
# Test system: rodent carcinogenicity bioassays, tumor incidence
# Assay: CCRIS carcinogenicity studies
# Text: The CCRIS database contains chemical records with carcinogenicity, mutagenicity, tumor promotion, and tumor inhibition test results. It was developed by the National Cancer Institute (NCI). Data are derived from studies cited in primary journals, current awareness tools, NCI reports, and other sources. Test results have been reviewed by experts in carcinogenesis and mutagenesis.
# CCRIS provides historical information from the years 1985 - 2011. It is no longer updated.
# This is an archive assay for CCRIS carcinogenicity studies.
smiles,measurement,setting,value
COc1ccc(N)cc1N,carcinogen call,"Species: MOUSE, Strain/Sex: B6C3F1/FEMALE, Route: ORAL, Dose: 0, 0.12, 0.24% IN DIET FOR 78 WK (STUDY DURATION: 96-97 WK), Dose: 0, 0.12, 0.24% IN DIET FOR 78 WK (STUDY DURATION: 96-97 WK), Tumor Site: Type of Lesion: THYROID GLAND: FOLLICULAR CELL ADENOMA OR CARCINOMA",active; positive
same,carcinogen call,"Species: MOUSE, Strain/Sex: B6C3F1/MALE, Route: ORAL, Dose: 0, 0.12, 0.24% IN DIET FOR 78 WK (STUDY DURATION: 96-97 WK), Dose: 0, 0.12, 0.24% IN DIET FOR 78 WK (STUDY DURATION: 96-97 WK), Tumor Site: Type of Lesion: THYROID GLAND: FOLLICULAR CELL ADENOMA",active; positive
same,carcinogen call,"Species: RAT, Strain/Sex: F344/FEMALE, Route: ORAL, Dose: 0, 0.12, 0.5% TWA, IN DIET FOR 78 WK (STUDY DURATION: 107-110 WK), Dose: 0, 0.12, 0.5% TWA, IN DIET FOR 78 WK (STUDY DURATION: 107-110 WK), Tumor Site: Type of Lesion: THYROID GLAND: ADENOCARCINOMA (NOS) OR FOLLICULAR CELL CARCINOMA OR PAPILLARY CYSTADENOCARCINOMA (NOS), EAR (ZYMBAL GLAN",active; positive
same,carcinogen call,"Species: RAT, Strain/Sex: F344/MALE, Route: ORAL, Dose: 0, 0.12, 0.5% TWA, IN DIET FOR 78 WK (STUDY DURATION: 107-109 WK), Dose: 0, 0.12, 0.5% TWA, IN DIET FOR 78 WK (STUDY DURATION: 107-109 WK), Tumor Site: Type of Lesion: THYROID GLAND: C CELL ADENOMA OR CARCINOMA, ADENOCARCINOMA (NOS), ADENOCARCINOMA (NOS) OR PAPILLARY ADENOCARCINOMA OR FO",active; positive
O=c1c(O[C@@H]2O[C@H]([C@H](O)CO)[C@H](O)[C@H]2O)c(-c2ccc(O)c(O)c2)oc2cc(O)cc(O)c12,carcinogen call,"Species: RAT, Strain/Sex: F344 DUCRJ/FEMALE (50/GROUP), Route: ORAL, DIET, Dose: 119.2, 352.8 MG/KG DAILY FOR 104 WK (STUDY DURATION: 104 WK), TEST MATERIAL WAS ENZYMATICALLY MODIFIED, Dose: 119.2, 352.8 MG/KG DAILY FOR 104 WK (STUDY DURATION: 104 WK), TEST MATERIAL WAS ENZYMATICALLY MODIFIED, Tumor Site: Type of Lesion: NONE",inactive; negative
same,carcinogen call,"Species: RAT, Strain/Sex: F344 DUCRJ/MALE (50/GROUP), Route: ORAL, DIET, Dose: 142.5, 431.1 MG/KG DAILY FOR 104 WK (STUDY DURATION: 104 WK), TEST MATERIAL WAS ENZYMATICALLY MODIFIED, Dose: 142.5, 431.1 MG/KG DAILY FOR 104 WK (STUDY DURATION: 104 WK), TEST MATERIAL WAS ENZYMATICALLY MODIFIED, Tumor Site: Type of Lesion: NONE",inactive; negative
Cn1cc(-c2ccccc2)c(=O)c(-c2cccc(C(F)(F)F)c2)c1,carcinogen call,"Species: Mouse, Strain/Sex: ICR/Female (60?/Group), Route: Oral, Dose: 0, 33, 100, 330 ppm (0; 4.0; 12.3; 34.5 mg/kg/day) of 97.2-97.8% fluridone in diet for 2 yr, study duration 2 yr, Dose: 0, 33, 100, 330 ppm (0; 4.0; 12.3; 34.5 mg/kg/day) of 97.2-97.8% fluridone in diet for 2 yr, study duration 2 yr",inactive; negative. (possible increased incidence of skin fibrosarcomas in high dose femal
same,carcinogen call,"Species: Mouse, Strain/Sex: ICR/Male (60?/Group), Route: Oral, Dose: 0, 33, 100, 330 ppm (0; 3.5; 10.9; 30.7 mg/kg/day) of 97.2-97.8% fluridone in diet for 2 yr, study duration 2 yr, Dose: 0, 33, 100, 330 ppm (0; 3.5; 10.9; 30.7 mg/kg/day) of 97.2-97.8% fluridone in diet for 2 yr, study duration 2 yr",inactive; negative
same,carcinogen call,"Species: Rat, Strain/Sex: Fischer 344/Female (60/Group), Route: Oral, Dose: 0, 200, 650, 2000 ppm of 97.2-97.8% fluridone in diet for 2 yr, study duration 2 yr, Dose: 0, 200, 650, 2000 ppm of 97.2-97.8% fluridone in diet for 2 yr, study duration 2 yr",inactive; negative
same,carcinogen call,"Species: Rat, Strain/Sex: Fischer 344/Male (60/Group), Route: Oral, Dose: 0, 200, 650, 2000 ppm of 97.2-97.8% fluridone in diet for 2 yr, study duration 2 yr, Dose: 0, 200, 650, 2000 ppm of 97.2-97.8% fluridone in diet for 2 yr, study duration 2 yr",inactive; negative
Brc1c(Br)c(Br)c(Oc2c(Br)c(Br)c(Br)c(Br)c2Br)c(Br)c1Br,carcinogen call,"Species: MOUSE, Strain/Sex: B6C3F1/FEMALE, Route: ORAL, Dose: 0, 25000, 50000 PPM IN DIET FOR 103 WK (STUDY DURATION: 103 WK), Dose: 0, 25000, 50000 PPM IN DIET FOR 103 WK (STUDY DURATION: 103 WK)",inactive; negative
same,carcinogen call,"Species: MOUSE, Strain/Sex: B6C3F1/MALE, Route: ORAL, Dose: 0, 25000, 50000 PPM IN DIET FOR 103 WK (STUDY DURATION: 103 WK), Dose: 0, 25000, 50000 PPM IN DIET FOR 103 WK (STUDY DURATION: 103 WK), Tumor Site: Type of Lesion: LIVER: HEPATOCELLULAR ADENOMA OR CARCINOMA, THYROID GLAND: FOLLICULAR CELL ADENOMA OR CARCINOMA",equivocal
same,carcinogen call,"Species: RAT, Strain/Sex: F344/FEMALE, Route: ORAL, Dose: 0, 25000, 50000 PPM IN DIET FOR 103 WK (STUDY DURATION: 103 WK), Dose: 0, 25000, 50000 PPM IN DIET FOR 103 WK (STUDY DURATION: 103 WK), Tumor Site: Type of Lesion: LIVER: NEOPLASTIC NODULE, NEOPLASTIC NODULE OR HEPATOCELLULAR CARCINOMA",active; positive
same,carcinogen call,"Species: RAT, Strain/Sex: F344/MALE, Route: ORAL, Dose: 0, 25000, 50000 PPM IN DIET FOR 103 WK (STUDY DURATION: 103 WK), Dose: 0, 25000, 50000 PPM IN DIET FOR 103 WK (STUDY DURATION: 103 WK), Tumor Site: Type of Lesion: LIVER: NEOPLASTIC NODULE, NEOPLASTIC NODULE OR HEPATOCELLULAR CARCINOMA",active; positive
c1ccc2c(c1)ccc1cc3ccc4c(c3cc12)CCCC4,carcinogen call,"Species: MOUSE, Strain/Sex: SWISS/FEMALE, Route: DERMAL, Dose: 0, 37 UG IN ACETONE (0.2%) 2/WK FOR 70 WK FOR A TOTAL DOSE OF 0, 5.2 MG (STUDY DURATION: 100 WK), Dose: 0, 37 UG IN ACETONE (0.2%) 2/WK FOR 70 WK FOR A TOTAL DOSE OF 0, 5.2 MG (STUDY DURATION: 100 WK), Tumor Site: Type of Lesion: SKIN: CARCINOMA, SKIN: PAPILLOMA",active; positive
CCC1(c2ccccc2)C(=O)NCNC1=O,carcinogen call,"Species: MOUSE, Strain/Sex: B6C3F1/FEMALE, Route: ORAL, Dose: 0, 300, 600, 1300 PPM IN DIET FOR 104 WK (STUDY DURATION: 104 WK), Dose: 0, 300, 600, 1300 PPM IN DIET FOR 104 WK (STUDY DURATION: 104 WK), Tumor Site: Type of Lesion: LIVER: HEPATOCELLULAR ADENOMA, HEPATOCELLULAR CARCINOMA, OR HEPATOBLASTOMA",active; positive
same,carcinogen call,"Species: MOUSE, Strain/Sex: B6C3F1/MALE, Route: ORAL, Dose: 0, 300, 600, 1300 PPM IN DIET FOR 104 WK (STUDY DURATION: 104 WK), Dose: 0, 300, 600, 1300 PPM IN DIET FOR 104 WK (STUDY DURATION: 104 WK), Tumor Site: Type of Lesion: LIVER: HEPATOCELLULAR ADENOMA, HEPATOCELLULAR CARCINOMA, OR HEPATOBLASTOMA, THYROID GLAND: FOLLICULAR CELL ADENOMA",active; positive
same,carcinogen call,"Species: RAT, Strain/Sex: F344/FEMALE, Route: ORAL, Dose: 0, 600, 1300, 2500 PPM IN DIET FOR 104 WK (STUDY DURATION: 104 WK), Dose: 0, 600, 1300, 2500 PPM IN DIET FOR 104 WK (STUDY DURATION: 104 WK)",inactive; negative
same,carcinogen call,"Species: RAT, Strain/Sex: F344/MALE, Route: ORAL, Dose: 0, 600, 1300, 2500 PPM IN DIET FOR 104 WK (STUDY DURATION: 104 WK), Dose: 0, 600, 1300, 2500 PPM IN DIET FOR 104 WK (STUDY DURATION: 104 WK), Tumor Site: Type of Lesion: THYROID GLAND: FOLLICULAR CELL ADENOMA, FOLLICULAR CELL ADENOMA OR CARCINOMA, KIDNEY: RENAL TUBULE ADENOMA OR CARCINOMA",equivocal
CC1(C)COC1=O,carcinogen call,"Species: MOUSE, Strain/Sex: B6C3F1/FEMALE, Route: GAVAGE, Dose: 0, 75, 150 MG/KG, Dose: 0, 75, 150 MG/KG",inactive; negative
same,carcinogen call,"Species: MOUSE, Strain/Sex: B6C3F1/MALE, Route: GAVAGE, Dose: 0, 75, 150 MG/KG, Dose: 0, 75, 150 MG/KG",inactive; negative
same,carcinogen call,"Species: RAT, Strain/Sex: F344/FEMALE, Route: GAVAGE, Dose: 0, 150, 300 MG/KG, Dose: 0, 150, 300 MG/KG, Tumor Site: Type of Lesion: STOMACH: SQUAMOUS CELL PAPILLOMA OR SQUAMOUS CELL CARCINOMA, UTERUS: ENDOMETRIAL STROMAL POLYP",active; positive
same,carcinogen call,"Species: RAT, Strain/Sex: F344/MALE, Route: GAVAGE, Dose: 0, 150, 300 MG/KG, Dose: 0, 150, 300 MG/KG, Tumor Site: Type of Lesion: STOMACH: SQUAMOUS CELL PAPILLOMA OR SQUAMOUS CELL CARCINOMA, TESTES: INTERSTITIAL CELL TUMOR",active; positive
